Counter-ions that a name gives are not always drawn.

Results on nine compounds are retold here after patent US20110039824A1, “1,2,3,6-tetrahydroazepino[4,5-b]indole-5-carboxylate nuclear receptor inhibitors” (Wyeth, priority 2008, published 2011).

One data set deals with T1, Gal4/hFXR fusion protein (Homo sapiens, UniProt Q96RI1).
T1 sequence (Q96RI1 262-486 limits assumed): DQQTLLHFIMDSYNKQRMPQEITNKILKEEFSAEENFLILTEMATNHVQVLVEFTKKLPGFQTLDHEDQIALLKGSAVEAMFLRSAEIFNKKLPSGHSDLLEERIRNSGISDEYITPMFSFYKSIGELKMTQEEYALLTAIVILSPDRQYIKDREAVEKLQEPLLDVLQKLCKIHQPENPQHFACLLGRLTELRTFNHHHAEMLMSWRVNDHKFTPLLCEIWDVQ
Briefly: Gal4/hFXR fusion protein agonist activity in human 293 cells (luciferase). Format: cell-based. Also noted: Potency Range; other: Gal4/FXR agonist potency in 293 cells. Particulars: Gal4/FXR agonist potency in 293 cells; table does not say whether hFXR or mFXR; read-out: Potency Range. As to the method:
• Assay Medium: Phenol red free high glucose Dulbecco's modified Eagle's medium with sodium pyruvate (Cellgro, #17-205-CV) supplemented with 10% fetal bovine serum (Gibco, 16000-044), 1% glutamax (Gibco, 35050-061), 100 units/mL penicillin and 100 μg/mL streptomycin (Gibco, 15140-122). • Culturplate-96 (PerkinElmer, 6005688) • Lysis buffer (Promega, E3971) • Luciferase assay reagent (Promega E1483)
• 1. Compounds to be tested were prepared as 2× stocks in assay medium. • 2. […] The supernatant was removed and the cells were resuspended in 1 ml assay medium. The cells were counted and diluted in assay medium to 200,000 cells per ml. The cells were then plated at 10,000 cells per well in Culturplate-96 plates in 50 uL assay medium. The cells were incubated at 37° C. for approximately 1 hour. • 3. […] All assays included 1 uM GW4064 (Maloney et al., J. Med. Chem., 2000, 43(16), 2971-2974) as a reference standard. • 4. Cells were incubated for 24 hours at 37° C.
• 5. The medium was removed, and the cells were lysed in 25 uL lysis buffer (Promega, E3971). • 6. The plates were analyzed for luciferase activity with luciferase assay reagent (Promega E1483). Plates were read on Victor^3V instrument using the protocol “Shuguang Luciferase assay” (dispense volume=100 uL, plate type=“Packard Viewplate”, measurement height=8 mm from bottom of plate, 5 second read per well).
• 1. For agonist single point screening, data were analyzed in Excel. Each compound was tested in triplicate. • 2. For agonist potency determinations, statistical analysis of the data was performed using a customized Excel/SAS program. Dose response curves were generated using a four parameter (min, max, slope, and EC50 where EC50 is defined as the concentration which corresponds to midway between the estimated max and min) logistic model using log-transformed data (data was transformed on both sides with known lambda=0). • 3.

For data set [1], the target named is T2, Progesterone Receptor (PR) (Homo sapiens, UniProt P06401).
T2 sequence (P06401 679-933 limits assumed): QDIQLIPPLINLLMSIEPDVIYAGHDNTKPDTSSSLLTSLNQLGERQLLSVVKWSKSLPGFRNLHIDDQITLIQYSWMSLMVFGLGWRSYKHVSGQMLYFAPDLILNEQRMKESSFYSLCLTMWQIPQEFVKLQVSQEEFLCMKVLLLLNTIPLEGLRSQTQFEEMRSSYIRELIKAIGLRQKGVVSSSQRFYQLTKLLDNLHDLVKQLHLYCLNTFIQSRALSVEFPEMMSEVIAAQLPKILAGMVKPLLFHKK
Briefly: Progesterone receptor (PR) antagonism, alkaline phosphatase assay in T47D cells. The data set is classed as cell-based. Particulars: percent inhibition @ 10 μM vs 1 nM progesterone. Here is the method:
DMEM:F12 (1:1) (GIBCO, BRL) supplemented with 5% (v/v) charcoal stripped fetal bovine serum (not heat-inactivated), 100 U/ml penicillin, 100 jig/ml streptomycin, and 2 mM GlutaMax (GIBCO, BRL).
I. 0.1M Tris-HCl, pH 9.8, containing 0.2% Triton X-100 II. 0.1 M Tris-HCl, pH 9.8, containing 4 mM p-nitrophenyl phosphate (Sigma).
Frozen T47D cells were thawed in a 37° C. water bath and diluted to 280,000 cells/ml in culture medium. To each well in a 96-well plate (Falcon, Becton Dickinson Labware), 180 μl of diluted cell suspension was added. Twenty μl of reference or test compounds diluted in the culture medium were then added to each well. When testing for progestin antagonist activity, reference antiprogestins or test compounds were added in the presence of 1 nM progesterone. The cells were incubated at 37° C. in a 5% CO2/humidified atmosphere for 24 hours.
At the end of treatment, the medium was removed from the plate. Fifty μl of assay buffer I was added to each well. The plates were shaken in a titer plate shaker for […]. Then 150 μl of assay buffer II was added to each well. Optical density measurements were taken at 5 min intervals for 30 min at a test wavelength of 405 nm.

Data set [2] in a line: Solubility in 2% Tween/0.5% MC aq. Format: physicochemical.
Another data set in a line: PAMPA permeability. Format: in vitro ADME.
The test system of another data set is Caco2. The experiment in a line: Caco2 permeability. Format: in vitro ADME.
A further data set has as its system LDLR KO Mouse Model. The experiment in a line: Mouse serum triglyceride (TG) and cholesterol levels in LDLR -/- mice. The data set is classed as in vivo. Particulars: daily oral gavage 7 days. As to the method: Eight-week old LDLR −/−mice were purchased from Jackson Laboratories and maintained on a chow diet. Some LDLR −/−mice were fed a western diet (AlN-76A; Purina Test Diets) as indicated. All mice were treated by daily oral gavage with vehicle or varying concentrations of compound for 7 days. On the last day after the final dose, the food was removed to allow a 3 hr fast and serum was harvested for analysis. Serum TG and cholesterol levels were determined using a Roche 912 clinical chemistry analyzer and expressed as mg/dL.

In the case of `CC(C)OC(=O)C1=CN(C(=O)c2cccc(CN3CCC(N4CCOCC4)CC3)c2)CC(C)(C)c2c1[nH]c1ccccc21` [Example 9, Isopropyl 1,1-dimethyl-3-{3-[(4-morpholin-4-ylpiperidin-1-yl)methyl]benzoyl}-1,2,3,6-tetrahydroazepino[4,5-b]indole-5-carboxylate], on Gal4/hFXR fusion protein, the EC50 fell in the range of 1000 to 10000 nM.

For the compound `CC(C)OC(=O)C1=CN(C(=O)c2cccc(CN3C[C@@H](C)N[C@@H](C)C3)c2)CC(C)(C)c2c1[nH]c1ccccc21` [Example 7, Isopropyl 3-(3-{[(3R,5S)-3,5-dimethylpiperazin-1-yl]methyl}benzoyl)-1,1-dimethyl-1,2,3,6-tetrahydroazepino[4,5-b]indole-5-carboxylate], at Gal4/hFXR fusion protein, the EC50 lay within 500 to 1000 nM.

Regarding `CC(C)OC(=O)C1=CN(C(=O)c2cccc(CN3CCC(O)CC3)c2)CC(C)(C)c2c1[nH]c1ccccc21` [Example 19, Isopropyl 3-{3-[(4-hydroxypiperidin-1-yl)methyl]benzoyl}-1,1-dimethyl-1,2,3,6-tetrahydroazepino[4,5-b]indole-5-carboxylate], the EC50 on Gal4/hFXR fusion protein fell in the range of 500 to 1000 nM.

As for `CC(C)OC(=O)C1=CN(C(=O)c2ccc(OCCCN3CCOCC3)cc2)CC(C)(C)c2c1[nH]c1cc(F)ccc21` [Example 30, Isopropyl 8-fluoro-1,1-dimethyl-3-[4-(3-morpholin-4-ylpropoxy)benzoyl]-1,2,3,6-tetrahydroazepino[4,5-b]indole-5-carboxylate], the “PR Antagonism (Alk. Phos. Assay @ 10 μM)” value in data set [1] is 95%. Further, in data set [2], the “2% Tween/0.5% MC aq. sol. (mg/mL)” value worked out at 0.20 mg/mL and the “2% Tween/0.5% MC aq. sol. (μM)” value came out at 355.0 µM. The “PAMPA Permeability (Pe × 10^−6)” value in the data set “PAMPA permeability” is 0.66 × 10^−6. In the data set on Caco2, the Transport mechanism entry was “passive”. The “Caco2 Permeability (Pe × 10^−6) A-B” value with Caco2 (A-B) is 0.8 × 10^−6. Also, the “Caco2 Permeability (Pe × 10^−6) B-A” value with Caco2 (B-A) is reported as 0.8 × 10^−6. In the data set on LDLR KO Mouse Model, the “Reduction of Total Cholesterol in a LDLR KO Mouse Model (Female) @ 10 mpk” value was determined as 60%, the “Reduction of Triglycerides in a LDLR KO Mouse Model (Female) @ 10 mpk” value was 65%, the “Reduction of Total Cholesterol in a LDLR KO Mouse Model (Male) @ 10 mpk” value is 74% and the “Reduction of Triglycerides in a LDLR KO Mouse Model (Male) @ 10 mpk” value came out at 78%.

Turning to `CC(C)OC(=O)C1=CN(C(=O)c2cccc(CN3CCS(=O)(=O)CC3)c2)CC(C)(C)c2c1[nH]c1ccccc21` [Example 21, Isopropyl 3-{3-[(1,1-dioxidothiomorpholin-4-yl)methyl]benzoyl}-1,1-dimethyl-1,2,3,6-tetrahydroazepino[4,5-b]indole-5-carboxylate], the EC50 at Gal4/hFXR fusion protein lay within 500 to 1000 nM.

As for `CC(C)OC(=O)C1=CN(C(=O)c2ccc(OCCCN3CCOCC3)cc2)CC(C)(C)c2c1[nH]c1ccccc21` [Reference Compound 1, 1-methylethyl-1,1-dimethyl-3-({4-[(3-morpholin-4-ylpropyl)oxy]phenyl}carbonyl)-1,2,3,6-tetrahydroazepino[4,5-b]indole-5-carboxylate], the “PR Antagonism (Alk. Phos. Assay @ 10 μM)” value in data set [1] is reported as 90%. For the same compound, in data set [2], the “2% Tween/0.5% MC aq. sol. (mg/mL)” value is given as 0.19 mg/mL and the “2% Tween/0.5% MC aq. sol. (μM)” value came out at 332.0 µM. Moreover, the “PAMPA Permeability (Pe × 10^−6)” value in the data set “PAMPA permeability” is given as 0 × 10^−6. In addition, the Transport mechanism entry in the data set with Caco2 was “passive”. Also, in the data set with LDLR KO Mouse Model, the “Reduction of Total Cholesterol in a LDLR KO Mouse Model (Female) @ 10 mpk” value came to 40%, the “Reduction of Triglycerides in a LDLR KO Mouse Model (Female) @ 10 mpk” value was determined as 25%, the “Reduction of Total Cholesterol in a LDLR KO Mouse Model (Male) @ 10 mpk” value stood at 49% and the “Reduction of Triglycerides in a LDLR KO Mouse Model (Male) @ 10 mpk” value amounted to 59%.

With `CC(C)OC(=O)C1=CN(C(=O)c2cccc(CNC3CCNCC3)c2)CC(C)(C)c2c1[nH]c1ccccc21` [Example 22, Isopropyl 1,1-dimethyl-3-{3-[(piperidin-4-ylamino)methyl]benzoyl}-1,2,3,6-tetrahydroazepino[4,5-b]indole-5-carboxylate dihydrochloride], the EC50 at Gal4/hFXR fusion protein lay within 1000 to 10000 nM.

Take `CC(C)OC(=O)C1=CN(C(=O)c2cccc(CN3CCCC(C(N)=O)C3)c2)CC(C)(C)c2c1[nH]c1ccccc21` (stereo not drawn) [Example 20, isopropyl 3-{3-[(3-carbamoylpiperidin-1-yl)methyl]benzoyl}-1,1-dimethyl-1,2,3,6-tetrahydroazepino[4,5-b]indole-5-carboxylate]: at Gal4/hFXR fusion protein, the EC50 lay within 500 to 1000 nM.

As for `CC(C)OC(=O)C1=CN(C(=O)c2cccc(CN3CCSCC3)c2)CC(C)(C)c2c1[nH]c1ccccc21` [Example 15, Isopropyl 1,1-dimethyl-3-[3-(thiomorpholin-4-ylmethyl)benzoyl]-1,2,3,6-tetrahydroazepino[4,5-b]indole-5-carboxylate], at Gal4/hFXR fusion protein, the EC50 lay in the range of 100 to 500 nM.
